Reference: patent publication US20060002881A1, “Perfluorocarbon-soluble compounds” (priority 2004, published 2006)

Key:
Format in all cases: physicochemical
[1] = Solubility of C7F15-MPEG in PFC; settings: decreases with increment of MW of MPEG
[2] = Solvent solubility of perfluoroalkanamides; set-up: key: S: complete dissolve in the solvent at room temperature; P: precipitation in the solvent; settings: 3% w/w; for Solubility in Acetone: room temperature
From the text: It is clear from the observation that perfluoroalkanamides of the present invention can easily form micelles in acetone at room temperature. With shorter perfluoroalkyl group (i.e., C6F13—), perfluoroalkanamide can dissolve into all tested hydrocarbon solvents at room temperature, but precipitate in fluorocarbon (i.e., CF-76).

[3] = Ternary phase diagram / phase behavior of PFC/water/fluorosurfactant (PFC microemulsion formation)
From the text: The formation of PFC-in-water emulsion requires high energy to disperse PFC as surfactant-stabilized microdroplets in aqueous phase; while, for thermodynamic stable PFC microemulsion, two immiscible liquid phases with the aid of a pertinent fluorosurfactant can turn into an optically isotropic solution simply by gentle mixing. Given in FIG. 2, different phase behaviors were created by titering various concentrations of C7F15CONH-MPEG350 surfactant dissolved in water solution with different amounts of PFOB liquid. Since the specific density of PFOB is 1.94 which is larger than the water density, the milky PFOB-in-water emulsion settled down on the bottom of the vial (FIG. 2A). […]
Aqueous solutions containing given quantities of fluorosurfactant were progressively added with PFC and placed in a thermostat water bath set at 25° C. After each addition, the aspect of the solution was recorded, along with number, nature, and approximate volumes of phases. […] Ternary phase diagrams were then plotted to distinguish the boundaries between different phases and used to quantitate the proportion of three components (water, fluorosurfactant, and PFC) forming PFC microemulsion.
The ternary phase diagram given in FIG. 3 was determined by the weight fraction of water, PFOB, and RF-MPEG350. The PFOB microemulsion domain was determined to be the area under the test points symbolized as ▪. […]

Compound	Solubility in PFOB or ZT85 (rank order) [1]	Solubility in CF-76 (3 M) ([2]; @ RT)	Solubility in Ethanol ([2]; @ RT)	Solubility in Hexane ([2]; @ RT)	Solubility in Acetone [2]	Solubility in Hexane ([2]; > 30° C.) [°C → S]	Solubility in CF-76 (3 M) ([2]; > 40° C.) [°C → S]	Solubility in Ethanol ([2]; > 40° C.) [°C → S]	Size of PFC microemulsion domain in ternary phase diagram ([3]; PFOB and ZT85, 25° C.)	Formation of transparent PFC microemulsion ([3]; PFOB or ZT85 / water / fluorosurfactant, 25° C., no co-surfactant)
C7F15CONH-PEG550-OCH3	C7F15-MPEG350>C7F15-MPEG550>C7F15-MPEG750									
CCCCCCCCNC(=O)C(F)(F)C(F)(F)C(F)(F)C(F)(F)C(F)(F)C(F)(F)C(F)(F)C(F)(F)F [C8F17CONHC8H17]		S	S	S	S					
CCCCCCCCCCCCNC(=O)C(F)(F)C(F)(F)C(F)(F)C(F)(F)C(F)(F)C(F)(F)C(F)(F)C(F)(F)F [C8F17CONHC12H25]		@ RT → P >	@ RT → P >	@ RT → P >	S	30	40	40		
C7F15CONH-PEG350-OCH3	C7F15-MPEG350>C7F15-MPEG550>C7F15-MPEG750								largest PFC microemulsion region	PFC-in-water microemulsion
CCCCCCCCCCCCNC(=O)C(F)(F)C(F)(F)C(F)(F)C(F)(F)C(F)(F)C(F)(F)F [C6F13CONHC12H25]		@ RT → P >	S	S	S		40			
C7F15CONH-PEG750-OCH3	C7F15-MPEG350>C7F15-MPEG550>C7F15-MPEG750									
CCCCCCCCCCCCNC(=O)C(F)(F)C(F)(F)C(F)(F)C(F)(F)C(F)(F)C(F)(F)C(F)(F)F [C7F15CONHC12H25]		@ RT → P >	@ RT → P >	@ RT → P >	S	30	40	40		
